Consider five molecules from US10065990B2, “Cyclic peptide compound, and preparation method, pharmaceutical composition and use thereof” (HANGZHOU GUANYU BIO-MEDICAL CO., LTD, priority 2013, dated 2018).

The structures appear in SMILES notation. Read-outs that look alike come from different tables or passages of the source.

For one test, the target named is T1, HDAC7 (Homo sapiens, UniProt Q8WUI4).
T1 sequence (Q8WUI4 1-952): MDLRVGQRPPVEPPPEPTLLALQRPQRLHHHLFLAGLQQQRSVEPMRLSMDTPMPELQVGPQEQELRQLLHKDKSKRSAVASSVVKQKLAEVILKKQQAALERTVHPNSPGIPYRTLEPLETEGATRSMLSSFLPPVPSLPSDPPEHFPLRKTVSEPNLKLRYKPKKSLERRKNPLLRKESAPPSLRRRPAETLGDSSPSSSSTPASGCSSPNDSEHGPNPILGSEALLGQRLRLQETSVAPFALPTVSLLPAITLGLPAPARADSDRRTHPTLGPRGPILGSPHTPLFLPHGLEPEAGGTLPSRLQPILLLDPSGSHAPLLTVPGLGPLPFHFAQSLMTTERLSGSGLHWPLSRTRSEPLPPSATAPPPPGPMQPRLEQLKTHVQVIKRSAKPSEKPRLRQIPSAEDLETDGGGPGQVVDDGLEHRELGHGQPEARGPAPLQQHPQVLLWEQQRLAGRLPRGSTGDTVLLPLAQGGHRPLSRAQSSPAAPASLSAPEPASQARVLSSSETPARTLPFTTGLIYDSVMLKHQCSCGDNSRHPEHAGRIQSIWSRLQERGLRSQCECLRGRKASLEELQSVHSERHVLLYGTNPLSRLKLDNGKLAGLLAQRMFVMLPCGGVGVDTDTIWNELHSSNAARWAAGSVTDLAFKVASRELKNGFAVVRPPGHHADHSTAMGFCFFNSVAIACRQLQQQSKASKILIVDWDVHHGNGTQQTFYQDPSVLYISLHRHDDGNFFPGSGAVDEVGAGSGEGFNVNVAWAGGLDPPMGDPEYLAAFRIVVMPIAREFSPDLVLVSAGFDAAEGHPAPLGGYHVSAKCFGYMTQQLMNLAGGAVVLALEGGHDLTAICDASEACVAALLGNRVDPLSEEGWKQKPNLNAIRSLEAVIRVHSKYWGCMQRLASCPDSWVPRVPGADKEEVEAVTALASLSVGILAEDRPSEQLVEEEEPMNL
The test can be described thus: HDAC biochemical activity measurement (fluorescent substrate deacetylation).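 Note: fluorogenic deacetylation assay using acetyl-lysine substrate at 20 µM, enzyme and compound incubated 30 min at 37 °C, then developer added, fluorescence read at 360/460 nm.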 Conditions: HDAC7; 37° C. 30 minutes.

Test [1] relates to A549 (human lung cancer cells). The test can be described thus: MTT cancer cell growth inhibition. In kind it is cell-based. Conditions: Homo sapiens, A549, 72 h, MTT, 72 hours incubation, read-out: GI50 A54. In short, it runs like this: (§1)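 GI50 values come from viability measured by MTT reduction at 570 nm. Plated overnight at 1500 cells per well, cultures received drug in three parallel wells across 10^−5–10^−10 M final and were incubated 72 h at 37° C. under 5% CO2 before MTT for 4 h.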

In test [2] the test system is BGC-823 (human gastric cancer cells). In words: MTT cancer cell growth inhibition. In kind it is cell-based. Conditions: Homo sapiens, BGC-823, 72 h, MTT, 72 hours incubation, read-out: GI50 BG. An outline of the steps:
as §1

Test [3] deals with Bel-7402 (human hepatoma cells). The test can be described thus: MTT cancer cell growth inhibition. In kind it is cell-based. Conditions: Homo sapiens, Bel-7402, 72 h, MTT, 72 hours incubation, Bel-7402 cells; read-out: GI50 Bel-7402. An outline of the steps:
as §1

Test [4] concerns DU145 (human prostate cancer cells). In words: MTT cancer cell growth inhibition. It is filed as cell-based. Conditions: Homo sapiens, DU-145, 72 h, MTT, 72 hours incubation, read-out: GI50 Du1. In short, it runs like this: as §1
The subject of test [5] is H1975 (non-small cell lung adenocarcinoma). The test can be described thus: MTT cancer cell growth inhibition. In kind it is cell-based. Conditions: Homo sapiens, NCI-H1975, 72 h, MTT, 72 hours incubation, H1975 cells; read-out: GI50 H1975. In short, it runs like this:
as §1

For test [6], the system named is HCC827 (human non-small cell lung cancer cells). In words: MTT cancer cell growth inhibition. Conditions: Homo sapiens, HCC827, 72 h, MTT, 72 hours incubation, HCC827 cells; read-out: GI50 HCC827. In kind it is cell-based. An outline of the steps:
as §1

The test system of test [7] is HT1080 (human fibrosarcoma cells). In words: MTT cancer cell growth inhibition. It is filed as cell-based. Conditions: Homo sapiens, HT-1080, 72 h, MTT, 72 hours incubation, read-out: GI50 HT1. In short, it runs like this: as §1
Test [8] has as its system Hela (human cervical cancer cells). The test can be described thus: MTT cancer cell growth inhibition. In kind it is cell-based. Conditions: Homo sapiens, HeLa, 72 h, MTT, 72 hours incubation, read-out: GI50 Hela. An outline of the steps:
as §1

Test [9] concerns Huh-7 (human hepatoma cells). In words: MTT cancer cell growth inhibition. In kind it is cell-based. Conditions: Homo sapiens, Huh-7, 72 h, MTT, 72 hours incubation, Huh-7 cells; read-out: GI50 Huh-7. In short, it runs like this: as §1
In test [10] the test system is K562 (human leukemia cells). The test can be described thus: MTT cancer cell growth inhibition. Conditions: Homo sapiens, K562, 72 h, MTT, 72 hours incubation, K562 cells; read-out: GI50 K562. It is filed as cell-based. An outline of the steps: as §1
The test system of test [11] is KBM-5 (human chronic myelogenous leukemia). In words: MTT cancer cell growth inhibition. In kind it is cell-based. Conditions: Homo sapiens, KBM5, 72 h, MTT, 72 hours incubation, KBM-5 cells; read-out: GI50 KBM-5. In short, it runs like this:
as §1

The subject of test [12] is KBM5-T315I (human chronic myelogenous leukemia). The test can be described thus: MTT cancer cell growth inhibition. It is filed as cell-based. Conditions: Homo sapiens, 72 h, MTT, 72 hours incubation, KBM5-T315I cells; read-out: GI50 KBM5-T315I. An outline of the steps: as §1
In test [13] the test system is MCF-7 (human breast cancer cells). The test can be described thus: MTT cancer cell growth inhibition. In kind it is cell-based. Conditions: Homo sapiens, MCF7, 72 h, 72 hours incubation, read-out: GI50 MCF. In short, it runs like this:
as §1

In test [14] the test system is MDA-MB-231 (breast cancer cells). The test can be described thus: MTT cancer cell growth inhibition. In kind it is cell-based. Conditions: Homo sapiens, MDA-MB-231, 72 h, read-out: GI50 MDA-MB-231, MTT, 72 hours incubation, MDA-MB-231 cells. An outline of the steps: as §1
Test [15] deals with MOLT-4 (human acute lymphoblastic leukemia cells). In words: MTT cancer cell growth inhibition. Conditions: Homo sapiens, MOLT-4, 72 h, MTT, 72 hours incubation, read-out: GI50 Mol. In kind it is cell-based. In short, it runs like this: as §1
Test [16] deals with N-87 (human gastric cancer cells). The test can be described thus: MTT cancer cell growth inhibition. It is filed as cell-based. Conditions: Homo sapiens, 72 h, MTT, 72 hours incubation, N-87 cells; read-out: GI50 N-87. An outline of the steps:
as §1

In test [17] the test system is PANC-1 (Pac-1, human pancreatic cancer cells). The test can be described thus: MTT cancer cell growth inhibition. Conditions: Homo sapiens, PANC-1, 72 h, MTT, 72 hours incubation, read-out: GI50 PAN. It is filed as cell-based. In short, it runs like this: as §1
The test system of test [18] is SGC-7901 (human gastric cancer cells). The test can be described thus: MTT cancer cell growth inhibition. It is filed as cell-based. Conditions: Homo sapiens, SGC-7901, 72 h, MTT, 72 hours incubation, SGC-7901 cells; read-out: GI50 SGC-7901. In short, it runs like this: as §1
Test [19] relates to U937 (human leukemia cells). In words: MTT cancer cell growth inhibition. It is filed as cell-based. Conditions: Homo sapiens, U-937, 72 h, MTT, 72 hours incubation, read-out: GI50 U93. An outline of the steps:
as §1

The subject of test [20] is lncap (prostate cancer cells). In words: MTT cancer cell growth inhibition. Conditions: Homo sapiens, LNCaP, 72 h, MTT, 72 hours incubation, read-out: GI50 lnca. It is filed as cell-based. An outline of the steps:
as §1

Broadly, the GI50 is the concentration that inhibits growth by half. In the case of `C=C1NC(=O)c2nc(ccc2F)CNC(=O)C[C@@H](/C=C/CCSC(C)=O)OC(=O)[C@H](C)NC1=O` [Compound 90], the “IC50 HDAC7” value on HDAC7 is reported as “no activity”. In addition, the concentration for 50% growth inhibition (GI50) stood at 30 nM in test [1]; 30 nM in test [2]; 94 nM in test [3]; 50 nM in test [4]; 34 nM in test [5]; 94 nM in [6]. For the same molecule, the GI50 in test [7] stood at 90 nM; in test [8], 80 nM; in test [9], 49 nM; in test [10], 53 nM; in [11] it was 83 nM; in [12], 24 nM. For the same molecule, the GI50 in test [13] worked out at 20 nM; in [14] it was 49 nM; in test [15] it was 40 nM; in [16], 34 nM; in test [17] it was 90 nM; in test [18] it was 36 nM. The results for the GI50 in test [19] and in test [20] were 30 nM and 40 nM, respectively.
Regarding `C/C=C1\NC(=O)c2nc(ccc2F)CNC(=O)C[C@@H](/C=C/CCS)OC(=O)[C@H](CCCCNC(=O)OCC2c3ccccc3-c3ccccc32)NC1=O` [Compound 120], the “IC50 HDAC7” value on HDAC7 was “no activity”. In addition, the GI50 in [1] came out at 50 nM; in test [2], 30 nM; in test [3], 66 nM; in test [4], 50 nM; in [5] it was 35 nM; in [6], 55 nM. Also, the concentration for 50% growth inhibition (GI50) in test [7] came to 10 nM; in test [8], 30 nM; in [9] it was 71 nM; in test [10], 23 nM; in test [11] it was 45 nM; in test [12], 33 nM. Moreover, the GI50 in [13] amounted to 100 nM; in test [14], 16 nM; in [15] it was 20 nM; in test [16] it was 53 nM; in [17] it was 100 nM; in [18], 84 nM. The GI50 in [19] was 10 nM; in test [20], 30 nM.
Regarding `C/C=C1\NC(=O)c2cc(F)cc(n2)CNC(=O)C[C@@H](/C=C/CCSC(C)=O)OC(=O)[C@@H](C)NC1=O` [Compound 101], the “IC50 HDAC7” value at HDAC7 was “no activity”. Also, the 50% growth inhibitory concentration (GI50) in [1] stood at 70 nM; in [2] it was 30 nM; in test [3], 45 nM; in test [4] it was 30 nM; in [5], 69 nM; in test [6], 39 nM. Moreover, the GI50 in test [7] came to 40 nM; in [8] it was 40 nM; in test [9], 36 nM; in [10], 21 nM; in [11] it was 41 nM; in test [12], 36 nM. Further, the GI50 in [13] was 20 nM; in test [14], 52 nM; in [15], 20 nM; in test [16], 26 nM; in [17] it was 40 nM; in [18], 48 nM. The GI50 was determined as 50 nM in test [19] and 20 nM in test [20].
As for `C/C=C1\NC(=O)c2ccc(SC)c(n2)CNC(=O)C[C@@H](/C=C/CCS)OC(=O)[C@H](C)NC1=O` [Compound 234], the “IC50 HDAC7” value against HDAC7 is “no activity”. Besides, the concentration for 50% growth inhibition (GI50) is 20 nM in test [1] (A549 cells); 80 nM in test [2] (BGC-823 cells); 82 nM in [3]; 50 nM in [4] (DU145 cells); 52 nM in test [5]; 16 nM in [6]. In addition, the GI50 in test [7] (HT1080 cells) stood at 10 nM; in [8] (Hela cells), 60 nM; in test [9], 42 nM; in test [10], 38 nM; in [11], 12 nM; in test [12], 32 nM. Moreover, the GI50 was 30 nM in [13] (MCF-7 cells); 39 nM in test [14]; 30 nM in test [15] (MOLT-4 cells); 23 nM in test [16]; 30 nM in [17] (PANC-1 cells); 39 nM in test [18]. Also, the GI50 in test [19] (U937 cells) and in test [20] (lncap cells) was 20 nM throughout.
For the molecule `C/C=C1\NC(=O)c2nc(ccc2F)CNC(=O)C[C@@H](/C=C/CCSC(=O)CCC)OC(=O)[C@H](C(C)C)NC1=O` [Example 42], the “IC50 HDAC7” value at HDAC7 is reported as “no activity”. Further, the concentration for 50% growth inhibition (GI50) in test [1] stood at 40 nM; in test [2], 30 nM; in [3], 55 nM; in test [4], 100 nM; in test [5] it was 35 nM; in test [6] it was 35 nM. Moreover, the GI50 was 40 nM in test [7]; 50 nM in [8]; 19 nM in [9]; 57 nM in [10]; 46 nM in [11]; 53 nM in test [12]. In addition, the GI50 in [13] was 100 nM; in test [14], 35 nM; in test [15], 80 nM; in [16], 84 nM; in test [17] it was 40 nM; in [18] it was 32 nM. In addition, the figures for the 50% growth inhibitory concentration (GI50) in [19] and in [20] were 70 nM and 50 nM, respectively.
